The values below come from patent publication US20240182470A1, “KRASG12C MUTANT PROTEIN INHIBITOR, PREARATION AND USE THEREOF” (YA THERAPEUTICS INC, priority 2021, published 2024).

The test system of this experiment is H358 (KRAS G12C mutant) cells. The experiment in a line: Tumor cell proliferation inhibition assay (Cell Titer-Glo, 72 h). In kind it is cell-based. Conditions: inhibition of tumor cell proliferation, 72 hours with compound, 10% fetal bovine serum; read-out: NCI-H538 IC50(nm). As to the method: The H358 (KRAS G^12C mutant) cells were digested, centrifuged and resuspended, and the cell density was measured with a Scepter automatic cell counter. The cells were diluted to a solution containing 44,000 cells per milliliter, and the density-adjusted cell solution was 90 microliters per well. into a 96-well culture plate. The 96-well plate was placed in a 37° C., 5% CO2 incubator. After the cells were cultured for 24 hours, different concentrations of the compounds to be tested were added. The cells were incubated with the compounds for 72 hours in the presence of 10% fetal bovine serum. Glo Luminescent Cell Viability Assay Kit (see manufacturer's instructions for details) was used to measure ATP content to assess cell growth inhibition. Briefly, 30 μl of Cell Titer-Glo reagent was added to each well, and the plate was shaken for 10 minutes to induce cell lysis. Fluoroskan
Ascent FL (Thermo) assay was used to record the fluorescent signal, and the maximum signal value was obtained from cells treated with dimethyl sulfoxide for 72 hours. The minimum signal value was obtained from the medium alone (the number of cells was zero), and the % inhibition rate=(the maximum signal value compound signal value)/(the maximum signal value—the minimum signal value×100%, and the data were processed using Graphpadprism 5 software. By sigmoid Dose-response curve fitting to calculate the IC50 value. “A” means IC50≤50 nM; “B” means 50<IC50≤500 nM; “C” means 500<IC50≤2000 nM; “D” means 2000 nM<IC50

pIC50: −log10 of the molar value.

For the compound `C=C(F)C(=O)N1CCN(c2nc(OC[C@@]34CCCN3C[C@H](F)C4)nc3nc(-c4cc(O)cc5cccc(F)c45)c(F)cc23)[C@H](C)C1` [Compound 34, 7-(3-Hydroxy-8-fluoronaphthyl)-6-fluoro-4-(((R)-4-(2-fluoroacryloyl)-2-methylpiperazine)-1-yl)-2-(((2R,7aS)-2-fluorotetrahydro-1H-pyrincyclin-7a(5H)-yl)methoxy)pyridine[2,3-d]lopyrimidine], the pIC50 was ≥ 7.30.

With “7-(8-Methylnaphthyl)-8-fluoro-4-(((R)-4-acryloyl-2-methylpiperazine)-1-yl)-2-(((S)-2,2-difluorotetrahydro-1H-pyrinyl-7a(5H)-yl)methoxy)quinazoline [Compound 62]”, the pIC50 was ≥ 7.30.

Regarding `C=C(F)C(=O)N1CCN(c2nc(OC[C@@]34CCCN3CC(F)(F)C4)nc3nc(-c4cc(O)cc5cccc(F)c45)c(F)cc23)C[C@@H]1CC#N` [Compound 84, 7-(3-Hydroxy-8-fluoronaphthyl)-6-fluoro-4-(((S)-4-(2-fluoroacryloyl)-3-carbonitrileethylpiperazine)-1-yl)-2-(((S)-2,2-difluorotetrahydro-1H-pyrinyl-7a(5H)-yl)methoxy)pyridine[2,3-d]lopyrimidine], the pIC50 is ≥ 7.30.

Take “7-(8-Fluoronaphthalene)-4-(((R)-4-Acryloyl-3-carbonitrileethylpiperazine)-1-yl)-24(1-(N,N-dimethylamineyl)methylcyclopropan-1-yl)methoxy)pyridine[2,3-d]lopyrimidine [Compound 21]”: the pIC50 is ≥ 7.30.

With `C=C(F)C(=O)N1CCN(c2nc(OC[C@@]34CCCN3CC(F)(F)C4)nc3nc(-c4cccc5cccc(F)c45)c(F)cc23)C[C@@H]1CC#N` [Compound 83], the pIC50 is ≥ 7.30. On to “6-Chloro-7-(8-fluoronaphthyl)-8-fluoro-4-(((S)-4-acryloyl-3-carbonitrileethylpiperazine)-2-(((S)-2,2- difluorotetrahydro-1H-pyrincyclo-7a(5H)-yl)methoxy)quinazoline [Compound 75]”, for which the pIC50 is ≥ 7.30. The result for `C=C(F)C(=O)N1CCN(c2nc(OC[C@@]34CCCN3C[C@H](F)C4)nc3nc(-c4cccc5cccc(F)c45)c(F)cc23)[C@H](C)C1` [Compound 30] reads ≥ 7.30; that for “7-(8-Methylnaphthalene)-4-(((R)-4-Acryloyl-3-carbonitrileethylpiperazine)-1-yl)-2-(((1-(pyrrolidin-1-yl))methylcyclopropan-1-yl)methoxy)pyridine[2,3-d]lopyrimidine [Compound 18]”, ≥ 7.30. To `C=CC(=O)N1CCN(c2nc(OC[C@@]34CCCN3C[C@H](F)C4)nc3c(F)c(-c4cc(O)cc5cccc(F)c45)c(Cl)cc23)[C@H](C)C1` [Compound 46, 6-Chloro-7-(3-hydroxy-8-fluoronaphthyl)-8-fluoro-4-(((R)-4-acryloyl-2-methylpiperazine)-1-yl)-2-(((2R,7aS)-2-fluorotetrahydro-1H-pyrinyl-7a(5H)-yl)methoxy)quinazoline] belongs ≥ 7.30; to `C=C(F)C(=O)N1CCN(c2nc(OC[C@@]34CCCN3C[C@H](F)C4)nc3c(F)c(-c4cccc5cccc(F)c45)c(Cl)cc23)[C@H](C)C1` [Compound 38, 6-Chloro-7-(8-fluoronaphthyl)-8-fluoro-4-(((R)-4-(2-fluoroacryloyl)-2-methylpiperazine)-1-yl)-2-(((2R,7aS)-2-fluorotetrahydro-1H-pyrinyl-7a(5H)-yl)methoxy)quinazoline], ≥ 7.30. To “7-(8-Fluoronaphthyl)-8-fluoro-4-(((R)-4-acryloyl-2-methylpiperazine)-1-yl)-2-(((2R,7aS)-2-fluorotetrahydro-1H-pyrincyclo-7a(5H)-yl)methoxy)quinazoline [Compound 69]” belongs ≥ 7.30; to “7-(8-fluoronaphthyl)-8-fluoro-4-(((S)-4-(2-fluoroacryloyl)-3-carbonitrileethylpiperazine)-1-yl)-2-(((2R,7aS)-2-fluorotetrahydro-1H-pyrinyl-7a(5H)-yl)methoxy)quinazoline [Compound 51]”, ≥ 7.30.

Turning to “7-(8-Methylnaphthyl)-8-fluoro-4-(((S)-4-(2-fluoroacryloyl)-3-carbonitrileethylpiperazine)-1-yl)-2-(((S)-2,2-difluorotetrahydro-1H-pyrincyclo-7a(5H)-yl)methoxy)quinazoline [Compound 72]”, the pIC50 is ≥ 7.30. As to “7-(8-Fluoronaphthyl)-6-fluoro-4-(((S)-4-(2-acryloyl)-3-carbonitrileethylpiperazine)-1-yl)-2-((((S)-1-(methyl-d3)pyrrolidin-2-yl)methoxy)pyridine[2,3-d]lopyrimidine [Compound 9]”, the negative-log IC50 (pIC50) was ≥ 7.30. As for “7-(8-Methylnaphthyl)-4-(((R)-4-acryloyl-2-methylpiperazine)-1-yl)-2-(((S)-2,2-difluoro tetrahydro-1H-pyrincycl-7a(5H)-yl)methoxy)pyridine[2,3-d]lopyrimidine [Compound 87]”, the pIC50 is ≥ 7.30.

Consider `C=CC(=O)N1CCN(c2nc(OC[C@@]34CCCN3CC(F)(F)C4)nc3c(F)c(-c4cccc5cccc(C)c45)ccc23)C[C@@H]1CC#N` [Compound 67], for which the pIC50 is ≥ 7.30. With `C=CC(=O)N1CCN(c2nc(OC[C@@H]3CCCN3C)nc3nc(-c4c(O)cccc4F)c(F)cc23)[C@@H](C)C1` [Compound 12, 7-(2-Fluoro-6-hydroxyphenyl)-6-fluoro-4-(((S)-4-(2-acryloyl)-2-methylpiperazine)-1-yl)-2-(((S)-1-(methyl-d3)pyrrolidin-2-yl)methoxy)pyridine[2,3-d]lopyrimidine], the pIC50 is 5.70 to 6.30. “7-(8-Chloronaphthalene)-4-(((R)-4-Acryloyl-3-carbonitrileethylpiperazine)-1-yl)-24(1-(N,N-dimethylaminyl)methylcyclopropan-1-yl)methoxy)pyridine[2,3-d]lopyrimidine [Compound 20]”: the negative-log IC50 (pIC50) was ≥ 7.30. As for “7-(3-Hydroxy-8-fluoronaphthyl)-8-fluoro-4-(((S)-4-acryloyl-3-carbonitrileethylpiperazine)-2-(((S)-2,2-difluorotetrahydro-1H-pyrincyclo-7a(5H)-yl)methoxy)quinazoline [Compound 64]”, the negative logarithm of the IC50 (pIC50) was ≥ 7.30. On to “7-(8-Methylnaphthalene)-4-(((R)-4-Acryloyl-2-methylpiperazine)-1-yl)-2-(((1-(pyrrolidin-1-yl)methylcyclopropan-1-yl)methoxy)pyridine[2,3-d]lopyrimidine [Compound 17]”, for which the negative-log IC50 (pIC50) was ≥ 7.30.

Take `C=C(F)C(=O)N1CCN(c2nc(OC[C@@]34CCCN3CC(F)(F)C4)nc3nc(-c4cccc5cccc(F)c45)ccc23)C[C@@H]1CC#N` [Compound 90, 7-(8-Fluoronaphthyl)-4-(((S)-4-(2-fluoroacryloyl)-3-carbonitrileethylpiperazine)-1-yl)-2-(((S)-2,2-difluorotetrahydro-1H-pyrincyclo-7a(5H)-yl)methoxy)pyridine[2,3-d]lopyrimidine]: the pIC50 is ≥ 7.30. To “7-(8-Methylnaphthalene)-4-(((R)-4-Acryloyl-2-methylpiperazine)-1-yl)-24(1-(N,N-dimethylamineyl)methylcyclopropan-1-yl)methoxy)pyridine[2,3-d]lopyrimidine [Compound 22]” belongs ≥ 7.30.

On to `C=C(F)C(=O)N1C2CCC1CN(c1nc(OC[C@@]34CCCN3C[C@H](F)C4)nc3c(F)c(-c4cc(O)cc5cccc(F)c45)c(Cl)cc13)C2` [Compound 42, 6-Chloro-74(3-hydroxy-8-fluoronaphthyl)-8-fluoro-4-(8-(2-fluoroacryloyl)-3,8-diazabicyclo[3.2.1]octane-3-yl)-2-(((2R,7aS)-2-fluorotetrahydro-1H-pyrincycline-7a(5H)-yl)methoxy)quinazoline], for which the negative logarithm of the IC50 (pIC50) was ≥ 7.30. Turning to “7-(8-Chloronaphthalene)-4-(((R)-4-Acryloyl-2-methylpiperazine)-1-yl)-24(1-(N,N-dimethylamino)) methylcyclopropan-1-yl)methoxy)pyridine[2,3-d]lopyrimidine [Compound 23]”, the pIC50 was ≥ 7.30. To “6-Chloro-7-(3-hydroxy-8-fluoronaphthyl)-8-fluoro-4-(((S)-4-(2-fluoroacryloyl)-3-carbonitrileethylpiperazine)-1-yl)-2-(((S)-2,2-difluorotetrahydro-1H-pyrincycline-7a(5H)-yl)methoxy)quinazoline [Compound 77]” belongs ≥ 7.30; to `C=CC(=O)N1CCN(c2nc(OC[C@@]34CCCN3C[C@H](F)C4)nc3nc(-c4cc(O)cc5cccc(F)c45)c(F)cc23)[C@H](C)C1` [Compound 36, 7-(3-Hydroxy-8-fluoronaphthyl)-6-fluoro-4-(((R)-4-acryloyl-2-methylpiperazine)-1-yl)-2-(((2R,7aS)-2-fluorotetrahydro-1H-pyrincyclo-7a(5H)-yl)methoxy)pyridine[2,3-d]lopyrimidine], ≥ 7.30. The result for `C=C(F)C(=O)N1CCN(c2nc(OCC34CCCN3CCC4)nc3c(F)c(-c4cccc5cccc(F)c45)ccc23)C[C@@H]1CC#N` [Compound 58, 7-(8-fluoronaphthyl)-8-fluoro-4-(((S)-4-(2-fluoroacryloyl)-3-carbonitrileethylpiperazine)-1-yl)-2-((tetrakis Preparation of Hydro-1H-Pyrin-7a(5H)-yl)methoxy)quinazoline] reads ≥ 7.30.

For orientation: pIC50 means the negative decadic logarithm of the IC50, by convention in mol/L.
